Tests used:
CHO-K1 cells = test: Adhesion and inhibition assay, colorimetric; format: cell-based, Chinese Hamster
Procedure: (§1) Adhesion assays were performed as described in (à compléter) with some modifications. Coating with the various molecules, at the indicated concentrations in 0.5 ml PBS, was performed in plastic 24-well multidishes (Nunclon™) at 37° C. (1 h or overnight).The cells were then washed three times with PBS, coating blocked with 1% heat-inactivated BSA (à compléter) for at least 1 h at 37° C., followed by three PBS washes, before addition of the cells (10^6 cells per ml in serum-free medium containing 0.1% heat-inactivated BSA). In standard experiments, purified KAL was applied at 3 μg/ml. Other substrates were used as control, fibronectin (20% g/ml) and poly-L-lysine (100 μg/ml).
(§2) Cells were incubated for 30 min to 1 h on coated wells. Medium was then aspirated and unbound cells removed by one wash with PBS. The adherent cells were fixed with […] paraformaldehyde (PFA) in PBS and stained with 0.1% crystal violet. Quantification of the attached cells was performed using a colorimetric method (à compléter). Data are expressed as the percentage of adherent cells on each tested substrate with reference to poly-L-lysine. Assays in triplicate were repeated in three independent experiments.
Heparin, heparan sulfate or chondroitin sulfate (up to 1 mg/ml in PBS) was added in KAL-coated-BSA-saturated wells, and allowed to interact for 2 h at 37° C. […]

PC12 cells [1] = test: Adhesion and inhibition assay, colorimetric; format: cell-based, rat; details: HS or CS pretreatment of KAL-coated wells; data not shown
Procedure: as §1, §2
Cells were incubated for 5 min at room temperature in HBSS containing 5 mM EDTA, washed once with HBSS and preincubated for 1 h at 4° C. in HBSS containing 0.1% BSA in the absence or in the presence of Ca^++ and/or Mg^++ prior plating.
Heparin, heparan sulfate or chondroitin sulfate (up to 1 mg/ml in PBS) was added in KAL-coated-BSA-saturated wells, and allowed to interact for 2 h at 37° C. After three washings with PBS, CHO-K1or PC12 cells were plated, and incubated as usual.
A 32 aminoacid peptide (32R1-FIG. 24) was synthesized (Syntiem laboratory). Control peptides were C17 (NH2CSLVPTKKKRRKTTDGF-COON) (SEQ ID NO:7) derived from the second fibronectin type III repeat of human KAL and C 16V (NHzCGSYANNNRYGRDPPTSV-000H), (SEQ ID NO:8) derived from the EYA1 protein (a completer). The peptides, at various concentrations (10 to 30 μg/ml), were directly adsorbed on polystyrene microtiter wells (Immulon 4, Nunc). […]

PC12 cells [2] = test: Adhesion assay on coated wells, cell counter; includes antibody, heparin and R1-FNIII inhibition; format: cell-based, rat; details: heparin present in KAL-coated wells
Procedure: 24-well microtiter plates were coated at 37 °C overnight with 20 μg/ml of laminin, 5μg/ml of KAL in PBS, pH=7.4. The plates were washed twice with PBS and non specific sites were blocked by the addition of 1% BSA in PBS for 1 hour at 37° C. Wells were washed twice with PBS. Cerebellar neurons or PC12 cells were resuspended in DMEM to a final concentration of 10^6 cells/ml. 500 μl of this suspension was added to each coated well. Cells were also added to control wells that had been coated with BSA alone. Plates were incubated at 37° C. for 90 min in a 5% CO2 humidified atmosphere. The wells were washed gently twice with 0.5 ml PBS. To remove adherent cells from the wells, 0.5 ml of 0.05% trypsin-EDTA were added to each well. After 10 min at 37 °C, the 0.5 ml of trypsin-EDTA containing the detached cells were removed and the number of cells was determined by using a cell counter (Coutler, ZM equipped with a Coultronic 256 channelizer).
Each cell adhesion assay was carried out in triplicate. The ration of adherent cells with respect to the total number of cell ×100 was determined as the % of cell adhesion.
For inhibition of cell adhesion, 5 ×10^5 PC12 cells were deposited on areas previously coated with KAL and with antiserum directed against the human KAL protein at different concentrations and treated as described for adhesion assay. […]

[3] = tested on: P5 cerebellar granule cells; test: Adhesion assay, colorimetric, relative to poly-L-lysine; format: cell-based, mouse; details: 1 hour
Procedure: as §1, §2

[4] = tested on: olfactory neurons (line 24); test: Adhesion and peptide/serum inhibition assay, colorimetric; format: cell-based, rat
Procedure: as §1, §2
A 32 aminoacid peptide (32R1-FIG. 24) was synthesized (Syntiem laboratory). Control peptides were C17 (NH2CSLVPTKKKRRKTTDGF-COON) (SEQ ID NO:7) derived from the second fibronectin type III repeat of human KAL and C 16V (NHzCGSYANNNRYGRDPPTSV-000H), (SEQ ID NO:8) derived from the EYA1 protein (a completer). The peptides, at various concentrations (10 to 30 μg/ml), were directly adsorbed on polystyrene microtiter wells (Immulon 4, Nunc). Adhesion assays were performed as described above.
In peptide inhibition assays, cells were preincubated with the peptides at different concentrations (10 to 100 μg/ml) for 1 h at 4° C., then plated to KAL-coated wells, and incubated for a further 30 min period of time.

CHO-677 cells = test: Adhesion assay with HS-deficient mutant cells; format: cell-based, Chinese Hamster
Text: The parental CHO cell line and the human KAL-transfected CHO clones (1-1 and 2-3) were cultivated in DMEM medium supplemented with 8% fetal calf serum (PAA, Jacques Boy, France). • Cells from the olfactory neuronal line 13.S.1.24 also named “line 24” (kindly provided by Dr. Astic, Lyon, France) were cultivated in DMEM supplemented with 10% calf serum. Porcine kidney epithelial cells (LLCPK) ATCC NO CRL1392 • Mouse GnRH neurons (GT1, subclone 1) • Wild-type CHO-K1, mutant CHO-K1-677 (Lidholt K. et al., 1992) and CHO-K1-606 (Bame et al., 1994) cell lines were provided to us by Dr. Esko, the mutant CHO-K1-745 (Esko et al., 1987) cell line was obtained from ATCC. The CHO-K1-677 cells display undetectable levels of heparan-sulfate (HS), but synthesize chondroitin sulfate (CS) at a level 3 times higher than wild-type CHO-K1 cells. The CHO-K1-606 cells express HS and CS at levels similar to those observed in wild-type, but HS is 2 to 3 times less sulfated than in wild-type cells. The CHO-K1-745 cells, deficient in xylosyltransferase, synthesize neither HS nor CS (Esko et al., 1987). Wild-type and mutant CHO-K1cells were maintained in Ham F12 medium supplemented with 10% fetal calf serum.
as §1, with “Other substrates were used as control, fibronectin (20% g/ml) and poly-L-lysine (100 μg/ml).” left out
Cells were incubated for 30 min to 1 h on coated wells. […] Quantification of the attached cells was performed using a colorimetric method (à compléter). Data are expressed as the percentage of adherent cells on each tested substrate with reference to poly-L-lysine. […]

heparin
inhibition of CHO-K1 cell adhesion on KAL (CHO-K1 cells; KAL-coated wells preincubated with 100 μg/ml): approximately 50%
inhibition of PC12 cell adhesion on KAL (PC12 cells [1]): 50%
heparin concentration from which adhesion of PC12 cells to KAL protein was inhibited (PC12 cells [2]): ≥ 0.03 mg/mL

laminin [reference compound]
percentage of cell adhesion relative to PLL substrate (set as 100%) [3]: 50%

NH2CSLVPTKKKRRKTTDGF-COON [17R2, reference compound]
effect of preincubation with peptide on adhesion to KAL ([4]; 50 μM): had no effect
percentage of olfactory neurons (line 24) adherent on substrate ([4]; substrate coated to microtiter wells): no adhesion

chondroitinase ABC
decrease of adhesion of CHO-K1 cells on KAL after enzyme treatment (CHO-K1 cells; cells treated prior plating): about 50%
effect of enzyme treatment of CHO-677 cells on adhesion on fibronectin substrate (CHO-677 cells; data not shown): did not affect adhesion
effect of enzyme treatment of CHO-677 cells on adhesion to KAL (CHO-677 cells; increasing concentrations, prior plating): virtually complete inhibition

From patent US20070037736A1, “Therapeutic composition comprising the KAL protein and use of the KAL protein for the treatment of retinal, renal, neuronal and neural injury” (INSTITUT PASTEUR, priority 1997, published 2007)
